From US20160374352A1, “BOTANICAL ANTIMICROBIAL COMPOSITIONS” (The Trustees of Columbia University in the City of, priority 2015, published 2016)

Key:
S. aureus = assay: Method B: surface disinfectant base solution diluted 1:20, 1 minute (Table 8); format: cell-based; details: stock solution in surface disinfectant base diluted 1:20, 1 minute (Method B)
P. aeruginosa = assay: Example 9: phenoxyethanol, PCMX, pine oil compositions diluted 1:20, albumin, 15 seconds (Table 3); format: cell-based; details: PXE stock 10.0% w/w, 0.5% w/w in 1 to 20 dilution
Protocol: Phenoxyethanol, PCMX and pine oil were added to 50% isopropanol in the amounts described in table 3 below (water was added to bring the total weight % of the composition 100%). The compositions described by table 3 were prepared and diluted 1:20 with water and tested using the following method. P. aeruginosa was used as the test organism (10^8 cfu/ml). 0.1 ml culture was added to 0.1 ml of a 3.0% albumin solution, mixed for 5 seconds and left for 2 minutes at room temperature. 0.8 ml of test sample was added and the tube was vortexed for 15 seconds. Serial dilutions were made with Drug Neutralizing Fluid and aliquots were plated on Trypticase soy broth agar plates. The plates were incubated for 24-48 hours and colony counts were then determined.

[1] = oral rinses of WO/2014/092999; cited from earlier work

Molecule	synergistic activity with thymol and vanilla extract [1]	also measured
Cc1cc(O)cc(C)c1Cl [PCMX]		log reduction from control growth (S. aureus): 0.5 log
OCCOc1ccccc1 [PXE]		Log reduction from control (P. aeruginosa): 0.6 log
[H]/N=C(\N/C(=N/[H])NCCCCCCNC(=N)NC(=N)Nc1ccc(Cl)cc1)Nc1ccc(Cl)cc1 [chlorhexidine]	did not show significant synergistic activity	
polyhexamethylene biguanide [PHMB]	synergistic activity	
